Where two headings read alike, the source gives them in different places.
Assays:
Format in all cases: biochemical, cynomolgus monkey
[1] = biological target: cortisol synthase (CYP11B1) (Macaca fascicularis, UniProt A0A2K5ULY1); assay: Inhibition of cortisol synthesis (cynomolgus adrenal mitochondria, cortisol by mass spectrometry)
Description: The aldosterone synthase and cortisol synthase inhibition assays employ cynomolgus adrenal gland mitochondria as the source of aldosterone synthase (CYP11B2) and cortisol synthase (CYP11B1). Mitochondria are prepared from frozen cynomolgus monkey adrenal glands according to Method A described in by J. D. McGarry et al. (Biochem. J., 1983, 214, 21-28), with a final resuspension in the AT buffer described in R. Yamaguchi et al. (Cell Death and Differentiation, 2007, 14, 616-624), frozen as aliquots in liquid nitrogen and stored at −80° C. until use. One unit of CYP11B2 and CYP11B1 activity in these preparations is defined as the amount of enzyme that generates 1 pmol of product in one hour under the conditions described.
(§1) Assays are performed in 96-well format in a final volume of 60 microL/well, containing 100 mM potassium phosphate, pH 7.4, 1% (v/v) DMSO, and additionally, 2 μM of corticosterone and 50 units of CYP11B2 activity. Reactions are started by the addition of NADPH to 1 mM and allowed to proceed for 90 minutes at 37° C. Reactions are terminated by the addition of 60 μL of MeCN containing an internal standard for mass spectrometry. One hundred microliters are then transferred to a glass filter plate and centrifuged at 570×g for 5 minutes and the filtrate is collected. Reaction product aldosterone is quantified by mass spectrometry. To determine the assay blank value (0% activity), NADPH is omitted from some reactions.
Dose dependent inhibition is quantified by the inclusion of compound at various concentrations. Maximum activity (100%) is defined by reactions containing NADPH, but without compound. Activities at each concentration are expressed as a percentage of the maximum activity (y-axis) and plotted against concentration of compound (x-axis) and the concentration corresponding to 50% activity (IC50) determined using the XLFit curve-fitting program using a 4-parameter logistic model.
Assays are performed as for aldosterone synthase except for the use of 150 units of CYP11B1, 11-deoxycortisol as substrate and cortisol measured as product.

[2] = system: aldosterone synthase (CYP11B2); assay: Inhibition of aldosterone synthase (cynomolgus adrenal mitochondria, aldosterone by mass spectrometry); details: selectivity for aldosterone synthase inhibition over cortisol synthase (CYP11B1) inhibition, fold
Description: (§2) The aldosterone synthase and cortisol synthase inhibition assays employ cynomolgus adrenal gland mitochondria as the source of aldosterone synthase (CYP11B2) and cortisol synthase (CYP11B1). […] One unit of CYP11B2 and CYP11B1 activity in these preparations is defined as the amount of enzyme that generates 1 pmol of product in one hour under the conditions described.
(§3) The compounds of the invention may be evaluated for aldosterone synthase inhibition by the following assay:
as §1
(§4) Dose dependent inhibition is quantified by the inclusion of compound at various concentrations. Maximum activity (100%) is defined by reactions containing NADPH, but without compound.

[3] = biological target: aldosterone synthase (CYP11B2) (Macaca fascicularis, UniProt A0A2K5UPL9); assay: as above; details: 2 μM corticosterone substrate, 50 units CYP11B2, 90 min, 37° C.; read-out: Aldosterone Inhibition IC50
Description: as §2, §3, §1, §4

[4] = 11-deoxycortisol substrate, 150 units CYP11B1; read-out: Cortisol Inhibition IC50
[5] = read-out: Cortisol Inhibition IC50; 11-deoxycortisol substrate, 150 units CYP11B1

aldosterone synthase (CYP11B2) (Macaca fascicularis, UniProt A0A2K5UPL9), sequence (A0A2K5UPL9 1-503): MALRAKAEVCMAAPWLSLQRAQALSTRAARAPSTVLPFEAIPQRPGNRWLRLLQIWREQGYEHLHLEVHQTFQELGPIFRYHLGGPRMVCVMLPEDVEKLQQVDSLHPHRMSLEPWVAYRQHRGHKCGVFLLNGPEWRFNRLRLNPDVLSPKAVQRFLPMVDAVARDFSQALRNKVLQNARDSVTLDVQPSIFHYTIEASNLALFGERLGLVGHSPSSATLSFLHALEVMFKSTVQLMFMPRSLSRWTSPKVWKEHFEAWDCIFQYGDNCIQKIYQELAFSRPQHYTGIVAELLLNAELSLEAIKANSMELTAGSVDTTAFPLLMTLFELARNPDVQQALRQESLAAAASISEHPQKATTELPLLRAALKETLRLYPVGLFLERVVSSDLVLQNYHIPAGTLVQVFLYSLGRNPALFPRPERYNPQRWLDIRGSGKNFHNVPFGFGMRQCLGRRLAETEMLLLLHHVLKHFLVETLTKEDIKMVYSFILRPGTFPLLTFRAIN

Compound: CC1(C)CC(=O)c2c(ncn2C2CC(c3ccccc3)C2)C1 (stereo not drawn) [C-ACU, 6,6-Dimethyl-3-(3-phenyl-cyclobutyl)-3,5,6,7-tetrahydro-benzoimidazol-4-one]
- IC50 [1, 4]: 9400 nM
- Selectivity [2]: 85
- IC50 [3]: 110 nM

Compound: COC(=O)c1ccc(-n2cnc3c2C(=O)CC(C)(C)C3)cc1 [C-ABW, 4-(5,5-Dimethyl-7-oxo-4,5,6,7-tetrahydro-benzoimidazol-1-yl)-benzoic acid methyl ester]
- IC50 [1, 4]: 7500 nM
- Selectivity [2]: 24
- IC50 [3]: 310 nM

Compound: CC1(C)CC(=O)c2c(ncn2-c2cccc(Cl)c2)C1 [C-ABK, 3-(3-Chloro-phenyl)-6,6-dimethyl-3,5,6,7-tetrahydro-benzoimidazol-4-one]
- IC50 [1, 4]: 7000 nM
- Selectivity [2]: 370
- IC50 [3]: 19 nM

Compound: CC1(C)CCc2ncn(-c3ccc(C#N)cc3)c2C1=O [C-ADX, 4-(6,6-Dimethyl-7-oxo-4,5,6,7-tetrahydro-benzoimidazol-1-yl)-benzonitrile]
- IC50 [1, 4]: 2140 nM
- Selectivity [2]: 153
- IC50 [3]: 14 nM

Compound: CC1(C)CC(=O)c2c(ncn2Cc2ccc(S(C)(=O)=O)cc2)C1 [C-ADP, 3-(4-Methanesulfonyl-benzyl)-6,6-dimethyl-3,5,6,7-tetrahydro-benzoimidazol-4-one]
- IC50 [1, 4]: 1600 nM
- Selectivity [2]: 17
- IC50 [3]: 92 nM

Compound: 3-(4-Cyanophenyl)-6,6-(3-tetrahydrofuran)-3,5,6,7-benzimidiazolo-4-one [C-ABA-B]
- IC50 [1, 4]: 850 nM
- Selectivity [2]: 53
- IC50 [3]: 16 nM

Compound: CC1(C)CC(=O)c2c(ncn2-c2ccc(C#N)cc2)C1 [C-ABX, 4-(5,5-Dimethyl-7-oxo-4,5,6,7-tetrahydro-benzoimidazol-1-yl)-benzonitrile]
- IC50 [1, 4]: 1300 nM
- Selectivity [2]: 80
- IC50 [3]: 17 nM

Compound: COc1ccc(Cn2cnc3c2C(=O)CC(C)(C)C3)cc1 [C-ADQ, 3-(4-Methoxy-benzyl)-6,6-dimethyl-3,5,6,7-tetrahydro-benzoimidazol-4-one]
- IC50 [1, 4]: 2100 nM
- Selectivity [2]: 22
- IC50 [3]: 96 nM

Compound: CC1(C)CC(=O)c2c(ncn2CC2CC2)C1 [C-ADA, 3-Cyclopropylmethyl-6,6-dimethyl-3,5,6,7-tetrahydro-benzoimidazol-4-one]
- IC50 [1, 4]: 12000 nM
- Selectivity [2]: 23
- IC50 [3]: 530 nM

Compound: CN1C(=O)CCc2cc(-n3cnc4c3C(=O)CC3(CC3)C4)ccc21 [C-ACH, 3-(1-Methyl-2-oxo-3,4-dihydroquinolin-6-yl)spiro[5,7-dihydrobenzimidazole-6,1′-cyclopropane]-4-one]
- IC50 [1, 4]: 4900 nM
- Selectivity [2]: 300
- IC50 [3]: 16 nM

Compound: N#Cc1ccc(-n2cnc3c2C(=O)CC2(CC2)C3)cc1Cl [C-AAW, 3-(3-Chloro-4-cyano)-6,6-spirocyclopropyl-3,5,6,7-tetrahydrobenzimidazol-4-one]
- IC50 [1, 5]: 220 nM
- Selectivity [2]: 43
- IC50 [3]: 5 nM

Compound: O=C1CCCc2ncn(-c3ccc4c(c3)CCO4)c21 [C-AAE, 3-(2,3-Dihydro-benzofuran-5-yl)-3,5,6,7-tetrahydro-benzoimidazol-4-one]
- IC50 [1, 4]: 9400 nM
- Selectivity [2]: 890
- IC50 [3]: 11 nM

Compound: O=C1CCCc2ncn(C3Cc4ccccc4C3)c21 [C-ADK, 3-Indan-2-yl-3,5,6,7-tetrahydro-benzoimidazol-4-one]
- IC50 [1, 4]: 8400 nM
- Selectivity [2]: 400
- IC50 [3]: 21 nM

Compound: N#Cc1ccc(-n2cnc3c2C(=O)CC2(CCC2)C3)cc1 [C-AAT, 4-(7-Oxospiro[4,6-dihydrobenzimidazole-5,1′-cyclobutan]-1-yl)benzonitrile]
- IC50 [1, 4]: 480 nM
- Selectivity [2]: 130
- IC50 [3]: 3.8 nM

Compound: O=C1CCCc2ncn(C3CCc4ccccc4C3)c21 (stereo not drawn) [C-ADJ, 3-(1,2,3,4-Tetrahydro-naphthalen-2-yl)-3,5,6,7-tetrahydro-benzoimidazol-4-one]
- IC50 [1, 4]: 1200 nM
- Selectivity [2]: 420
- IC50 [3]: 2.8 nM

Compound: CN1C[C@@H](n2cnc3c2C(=O)CC(C)(C)C3)CCC1=O [C-ACR, 6,6-Dimethyl-3-((S)-1-methyl-6-oxo-piperidin-3-yl)-3,5,6,7-tetrahydrobenzoimidazol-4-one]
- IC50 [1, 4]: > 30000 nM
- Selectivity [2]: 38
- IC50 [3]: 785 nM

Compound: CC1(C)CC(=O)c2c(ncn2-c2ccccc2)C1 [C-ACA, 6,6-Dimethyl-3-phenyl-3,5,6,7-tetrahydro-benzoimidazol-4-one]
- IC50 [1, 4]: 12000 nM
- Selectivity [2]: 46
- IC50 [3]: 250 nM

Compound: Cn1ncc2c1CC(n1cnc3c1C(=O)CCC3)CC2 (stereo not drawn) [C-AEF, 3-(1-Methyl-4,5,6,7-tetrahydro-1H-indazol-6-yl)-3,5,6,7-tetrahydro-benzoimidazol-4-one]
- IC50 [1, 4]: > 30000 nM
- Selectivity [2]: 160
- IC50 [3]: 190 nM

Compound: CC1(C)CC(=O)c2c(ncn2-c2ccc(Cl)c(Cl)c2)C1 [C-ABD, 3-(3,4-Dichloro-phenyl)-6,6,-dimethyl-3,5,6,7-tetrahydro-benzoimidazol-4-one]
- IC50 [1, 4]: 370 nM
- Selectivity [2]: 120
- IC50 [3]: 3.1 nM

Compound: Cc1ccc(-n2cnc3c2C(=O)CC(C)(C)C3)cc1 [C-ACB, 6,6-Dimethyl-3-p-tolyl-3,5,6,7-tetrahydro-benzoimidazol-4-one]
- IC50 [1, 4]: 4400 nM
- Selectivity [2]: 200
- IC50 [3]: 22 nM

Compound: Cc1nnsc1Cn1cnc2c1C(=O)CC(C)(C)C2 [C-ADC, 6,6-Dimethyl-3-(4-methyl-[1,2,3]thiadiazol-5-ylmethyl)-3,5,6,7-tetrahydro-benzoimidazol-4-one]
- IC50 [1, 4]: 45000 nM
- Selectivity [2]: 180
- IC50 [3]: 250 nM

Compound: Cc1cc(-n2cnc3c2C(=O)CC2(CCC2)C3)ccc1C#N [C-AAU, 2-Methyl-4-(7-oxospiro[4,6-dihydrobenzimidazole-5,1′-cyclobutan]-1-yl)benzonitrile]
- IC50 [1, 4]: 51 nM
- Selectivity [2]: 5.0
- IC50 [3]: 10 nM

Compound: CC1(C)CC(=O)c2c(ncn2-c2ccc(Cl)cc2Cl)C1 [C-ABG, 3-(2,4-Dichloro-phenyl)-6,6-dimethyl-3,5,6,7-tetrahydro-benzoimidazol-4-one]
- IC50 [1, 4]: 500 nM
- Selectivity [2]: 120
- IC50 [3]: 4.2 nM

Compound: N#Cc1ccc(-n2cnc3c2C(=O)CC2(CC2)C3)cc1 [C-AAX, 3-(4-Cyanophenyl)-6,6-spirocyclpropyl-3,5,6,7-tetrahydro-benzimidazol-4-one]
- IC50 [1, 4]: 1900 nM
- Selectivity [2]: 230
- IC50 [3]: 8.5 nM

Compound: Cn1c(=O)oc2cc(-n3cnc4c3C(=O)CCC4)ccc21 [C-AAM, 3-Methyl-6-(7-oxo-4,5,6,7-tetrahydro-benzoimidazol-1-yl)-3H-benzooxazol-2-one]
- IC50 [1, 4]: > 30000 nM
- Selectivity [2]: 240
- IC50 [3]: 120 nM

Compound: CC(=O)N1CCc2cc(-n3cnc4c3C(=O)CCC4)ccc21 [C-AAA, 3-(1-Acetyl-2,3-dihydro-1H-indol-5-yl)-3,5,6,7-tetrahydro-benzoimidazol-4-one]
- IC50 [1, 4]: > 30000 nM
- Selectivity [2]: 59
- IC50 [3]: 510 nM

Compound: N#Cc1ccc(-n2cnc3c2C(=O)C[C@H](C(N)=O)C3)cc1Cl [C-AEB-B, (R)-1-(3-Chloro-4-cyano-phenyl)-7-oxo-4,5,6,7-tetrahydro-1H-benzoimidazole-5-carboxylic acid amide]
- IC50 [1, 5]: > 30000 nM
- Selectivity [2]: 940
- IC50 [3]: 32 nM

Compound: CC1(C)CC(=O)c2c(ncn2CC2CCCCC2)C1 [C-ACP, 3-Cyclohexylmethyl-6,6-dimethyl-3,5,6,7-tetrahydro-benzoimidazol-4-one]
- IC50 [1, 4]: 5900 nM
- Selectivity [2]: 240
- IC50 [3]: 24 nM

Compound: N#Cc1ccc(-n2cnc3c2C(=O)CC2(CCC2)C3)cc1Cl [C-ACG, 3-(4-Cyano, 3-chlorophenyl)-6,6-spirocyclobutyl-3,5,6,7-benzimidazolo-4-one]
- IC50 [1, 5]: 93 nM
- Selectivity [2]: 7.5
- IC50 [3]: 12 nM

Compound: CN1C(=O)CCc2cc(-n3cnc4c3C(=O)CC3(CCOCC3)C4)ccc21 [C-AAP, 3-(1-Methyl-2-oxo-3,4-dihydroquinolin-6-yl)spiro[5,7-dihydrobenzoimidazole-6,4′-tetrahydropyran]-4-one]
- IC50 [1, 4]: > 30000 nM
- Selectivity [2]: 65
- IC50 [3]: 460 nM

From patent US10858342B2, “Bicyclic imidazole derivatives useful for the treatment of renal diseases, cardiovascular diseases and fibrotic diseases” (Boehringer Ingelheim International GmbH, priority 2016, dated 2020)
